Consider 2 compounds from patent US10011571B2, “Preparation method for aromatic heterocyclic compound used as selective JAK3 and/or JAK1 kinase inhibitor and application of aromatic heterocyclic compound” (SHENZHEN CHIPSCREEN BIOSCIENCES, LTD., priority 2014, dated 2018).

The subject of the series is collagen-induced arthritis (CIA) model of rats. Description: Collagen-induced arthritis (CIA) model of rats. In kind it is in vivo. Particulars: rat CIA; for swelling degree induced by arthritis in the rats, compared to the solvent group: 40 mg/kg i.g.; for Inhibitory rate for arthritis score % / Inhibitory rate for paw volume % / Inhibitory rate for toe thickness % / Body weight growth rate %: 14 days after administration, Examples 40 mg/kg i.g. twice/day, MTX 5 mg/kg i.p. twice a week; for Body weight growth rate %: solvent = 100.0; for toxicity to the rats judged from body weight: compared to the solvent group. As for the experimental part:
Objective: in this test, arthritis is induced by chicken collagen in Wistar rats. After in vivo administration of the compounds of Example 7 and Example 22, the change of the disease index for arthritis in rats is evaluated to determine the therapeutic effect of the test compounds on rat arthritis.
Experimental animals: 36 female Wistar rats were purchased from the animal experiment center, Sun Yat-Sen University (Guangzhou) with the body weight ranging from 180 to 200 g at the beginning of experiment. Four groups (8 rats in each group) were used as the arthritis model, and another group (4 rats) was used as normal control.
Materials: chicken type II collagen and Freund's complete adjuvant were purchased from Beijing Biolead Science and Technology Development Co., Ltd. Positive control: methotrexat (MTX).
Preparation method: the test compounds were prepared by adding them to freshly prepared 0.2% CMC-Na+0.1% Tween-80 solution in sterile water to a desired concentration and thoroughly mixing through ultrasound.
CIA model: the chicken collagen was fully emulsified in equal volume of freud's complete adjuvant, and subcutaneously injected at the tail root of the rat on day 0 for sensitization (250 μL/rat). Another injection was performed at the tail root on day 7 for supplementary immunization (100 μL/rat). After arthritis occurred (on about day 13), the rats were randomly divided into 4 groups with 8 rats in each group. Administration started on day 14 after the first immunization, and lasted for 14 days. The limbs of a rat were visually inspected, and the severity of arthritis was scored in a range from […]: 0=normal; 1=a slight symptom, with signs, such as red and swollen ankle or wrist; 2=moderate red and swollen ankle or wrist; 3=severe red and swollen paw, including toes; 4=severe swollen joint accompanied with dysfunction; the highest score for each rat was 16. The thickness of toes of posterior limbs and the paw volume were measured at the same time.
Medication: the rats were i.g. administered with the compound of Example 7 at a concentration of 40 mg/kg twice/day; or the rats were i.g. administered with the compound of Example 22 at a concentration of 40 mg/kg twice/day. For the positive control, 5 mg/kg MTX was intraperitoneally injected twice a week. The i.g. administration of solvent was used as the negative control. The data obtained 14 days after administration and before administration were compared.

Turning to `C=CC(=O)N(C)c1cc(Nc2ncc(Cl)c(NCCCNC(=O)c3ccc(C#N)cc3)n2)ccc1F` [Example 7, N-(3-(5-chloro-2-(4-fluoro-3-(N-methylacrylamido)phenylamino)pyrimidinyl-4-amino)propyl)-4-cyano-benzamide], the “swelling degree induced by arthritis in the rats, compared to the solvent group” value was “significantly inhibited”; the “Inhibitory rate for arthritis score %” value is 75.0%; the “Inhibitory rate for paw volume %” value is listed as 63.6%; the “Inhibitory rate for toe thickness %” value is listed as 74.3%. In addition, the “Body weight growth rate %” value stood at 102.2% and the “toxicity to the rats judged from body weight” value is given as “no significant toxicity”.
Regarding `C=CC(=O)N(C)c1cc(Nc2ncc(Cl)c(NCCCNC(=O)c3ccc(C(F)(F)F)cc3)n2)ccc1F` [Example 22, N-(3-(5-chloro-2-(4-fluoro-3-(N-methylacrylamido)phenylamino)pyrimidinyl-4-amino)propyl)-4-trifluoromethylbenzamide], the “swelling degree induced by arthritis in the rats, compared to the solvent group” value is listed as “certain inhibitory effect”; the “Inhibitory rate for arthritis score %” value is 25.5%; the “Inhibitory rate for paw volume %” value is 24.6%; the “Inhibitory rate for toe thickness %” value is given as 13.9%. Besides, the “Body weight growth rate %” value is reported as 102.0% and the “toxicity to the rats judged from body weight” value was “no significant toxicity”.
